Calls of active or inactive are those of the source. No cut-off for these calls is given here. Where a SMILES comes first, the peptide text is derived from it.
Experiments:
[1] = Drug localization in cytoplasm of Escherichia coli ATCC 25922 at 3 times MIC by confocal microscopy; format: ADME, subcellular
Staphylococcus aureus [2] = test: Induction of resistance development in methicillin-resistant Staphylococcus aureus BAA-44 assessed as fold increase in MIC at sub-MIC measured after 30 passages relative to control; format: functional
Staphylococcus aureus [3] = test: Disruption of membrane integrity in Staphylococcus aureus ATCC 25923 by PI staining based analysis; format: functional, organism-based
Staphylococcus aureus [4] = test: Induction of resistance development in Staphylococcus aureus ATCC 25923 assessed as fold increase in MIC at sub-MIC measured after 25 passages relative to control; format: functional
Staphylococcus aureus [5] = test: Induction of resistance development in Staphylococcus aureus ATCC 25923 assessed as fold increase in MIC at sub-MIC measured after 30 passages relative to control; format: functional
Pseudomonas aeruginosa = test: Antibacterial activity against Pseudomonas aeruginosa ATCC BAA-427 incubated for 16 to 18 hrs by broth dilution assay; format: functional; settings: time 16-18 hrs
[6] = Toxicity in mouse assessed as animal survival at 15 mg/kg, iv administered each day for 5 days measured after 7 days post-last dose; format: organism-based; settings: in vivo, 120 h, time 5 day
Klebsiella pneumoniae = test: Antibacterial activity against Klebsiella pneumoniae ATCC 27736 incubated for 16 to 18 hrs by broth dilution assay; format: functional; settings: time 16-18 hrs
Escherichia coli [7] = test: Bactericidal activity against Escherichia coli ATCC 25922 incubated for 16 to 18 hrs; format: functional; settings: time 16-18 hrs
Escherichia coli [8] = test: Induction of cell membrane damage in Escherichia coli ATCC 25922 at 3 times MIC incubated for 60 mins by SEM analysis; format: functional, organism-based
Escherichia coli [9] = test: Induction of resistance development in Escherichia coli ATCC 25922 assessed as fold increase in MIC at sub-MIC measured after 25 passages relative to control; format: functional
[10] = Hemolytic activity in human RBC measured after 40 mins by absorbance based assay; format: toxicity, cell-based, Erythrocyte; settings: human red blood cells
Staphylococcus aureus [11] = test: Bactericidal activity against Staphylococcus aureus ATCC 25923 incubated for 16 to 18 hrs; format: functional; settings: time 16-18 hrs
Bacillus subtilis = test: Antibacterial activity against Bacillus subtilis 6633 incubated for 16 to 18 hrs by broth dilution assay; format: functional; settings: time 16-18 hrs
Staphylococcus aureus [12] = test: Antibacterial activity against Staphylococcus aureus ATCC 25923 incubated for 16 to 18 hrs in presence of 10 percent human serum by broth dilution assay; format: functional; settings: time 16-18 hrs
[13] = test system: Mycolicibacterium smegmatis; test: Antimycobacterial activity against Mycobacterium smegmatis assessed as reduction in bacterial growth at 2 times MIC pretreated for 1 hr followed by compound removal and subsequent culturing in fresh media without compound for 24 hrs measured after 4 days; format: functional, organism-based
[14] = test system: Mycolicibacterium smegmatis; test: Disruption of cell membrane integrity in Mycobacterium smegmatis incubated for 2 hrs by EtBr uptake assay; format: functional, organism-based
[15] = Cytotoxicity against mouse 3T3-L1 cells assessed as cell viability at 100 uM incubated for 24 hrs by MTT assay relative to control; format: toxicity, cell-based; settings: 3T3-L1 cells, read-out: Activity
Staphylococcus aureus [16] = test: Bactericidal activity against Staphylococcus aureus ATCC 25923 at MIC incubated for 45 mins by time kill assay; format: functional, organism-based
Escherichia coli [17] = test: Antibacterial activity against Escherichia coli ATCC 25922 incubated for 16 to 18 hrs by broth dilution assay; format: functional; settings: time 16-18 hrs
Staphylococcus aureus [18] = test: Disruption of plasma membrane integrity in Staphylococcus aureus ATCC 25923 by SYTOX-Green uptake assay; format: functional, organism-based
Escherichia coli [19] = test: Disruption of membrane integrity in Escherichia coli ATCC 25922 by PI staining based analysis; format: functional, organism-based
Staphylococcus aureus [20] = test: Antibacterial activity against methicillin-resistant Staphylococcus aureus 33591 incubated for 16 to 18 hrs by broth dilution assay; format: functional; settings: time 16-18 hrs
Escherichia coli [21] = test: Bactericidal activity against Escherichia coli ATCC 25922 at MIC incubated for 45 mins by time kill assay; format: functional, organism-based
[22] = Toxicity in BALB/c mouse infected with Mycobacterium bovis BCG assessed as animal survival at 2.5 to 5 mg/kg, iv administered once a day for 2 weeks; format: organism-based; settings: in vivo, 336 h, dose 2.5-5 mg/kg
[23] = Toxicity in mouse assessed as change in serum ALT level at 15 mg/kg, iv administered each day for 5 days measured after 7 days post-last dose; format: organism-based; settings: in vivo, 120 h, time 5 day
Escherichia coli [24] = test: Disruption of plasma membrane integrity in Escherichia coli ATCC 25922 by SYTOX-Green uptake assay; format: functional, organism-based
[25] = Cytotoxicity against rat L6 cells assessed as cell viability at 100 uM incubated for 24 hrs by MTT assay relative to control; format: toxicity, cell-based; settings: L6 cells, read-out: Activity
Staphylococcus aureus [26] = test: Bactericidal activity against Staphylococcus aureus ATCC 25923 at MIC incubated for 30 mins by time kill assay; format: functional, organism-based
[27] = test system: Mycolicibacterium smegmatis; test: Antitubercular activity against Mycobacterium smegmatis incubated for 24 hrs by rezasurin dye based assay; format: functional
Staphylococcus aureus [28] = test: Antibacterial activity against Staphylococcus aureus ATCC 25923 incubated for 16 to 18 hrs by broth dilution assay; format: functional; settings: time 16-18 hrs
Staphylococcus aureus [29] = test: Induction of membrane depolarization in Staphylococcus aureus ATCC 25923 by diSC3-5 dye based analysis; format: functional, organism-based
Staphylococcus aureus [30] = test: Antibacterial activity against methicillin-resistant Staphylococcus aureus BAA-44 incubated for 16 to 18 hrs by broth dilution assay; format: functional; settings: time 16-18 hrs
Escherichia coli [31] = test: Induction of membrane depolarization in Escherichia coli ATCC 25922 by diSC3-5 dye based analysis; format: functional, organism-based
Staphylococcus aureus [32] = test: Induction of cell membrane damage in Staphylococcus aureus ATCC 25923 at 3 times MIC incubated for 60 mins by SEM analysis; format: functional, organism-based
[33] = Toxicity in mouse assessed as change in serum AST level at 15 mg/kg, iv administered each day for 5 days measured after 7 days post-last dose; format: organism-based; settings: in vivo, 120 h, time 5 day
Escherichia coli [34] = test: Bactericidal activity against Escherichia coli ATCC 25922 at MIC incubated for 30 mins by time kill assay; format: functional, organism-based
Staphylococcus aureus [35] = test: Induction of resistance development in methicillin-resistant Staphylococcus aureus 33591 assessed as fold increase in MIC at sub-MIC measured after 30 passages relative to control; format: functional
[36] = Hemolytic activity in human RBC assessed as disruption of membrane integrity by Alexa Fluor-Annexin V staining based analysis; format: toxicity, cell-based; settings: erythrocyte
[37] = Retention time of compound by RP-HPLC method; format: physicochemical
Escherichia coli [38] = test: Induction of resistance development in Escherichia coli ATCC 25922 assessed as fold increase in MIC at sub-MIC measured after 30 passages relative to control; format: functional
Escherichia coli [39] = test: Antibacterial activity against Escherichia coli ATCC 25922 incubated for 16 to 18 hrs in presence of 10 percent human serum by broth dilution assay; format: functional; settings: time 16-18 hrs

CC(C)C[C@H](NC(=O)[C@H](CCCNC(=N)N)NC(=O)CNC(=O)[C@H](CC(C)C)NC(=O)[C@H](CCCNC(=N)N)NC(=O)CNC(=O)[C@H](CC(C)C)NC(=O)[C@H](CCCNC(=N)N)NC(=O)CNC(=O)[C@H](CC(C)C)NC(=O)[C@H](CCCNC(=N)N)NC(=O)CNC(=O)[C@H](CC(C)C)NC(=O)[C@H](CCCNC(=N)N)NC(=O)CNC(=O)c1cc(C(=O)O)ccc1-c1c2ccc(=[N+](C)C)cc-2oc2cc(N(C)C)ccc12)C(=O)O.[Cl-] (HELM PEPTIDE1{[CN(C)c1ccc2c(-c3ccc(C(=O)O)cc3C(=O)[*:2])c3ccc(=[N+](C)C)cc-3oc2c1].G.R.L.G.R.L.G.R.L.G.R.L.G.R.L}$$$$V2.0)
Drug uptake [1]: Active

H-VLGRVLGRVLGRVLGR-OH
fold change (FC) (Staphylococcus aureus [2]): 4
Activity (Staphylococcus aureus [3]): Active
fold change (FC) (Staphylococcus aureus [4]): 2
fold change (FC) (Staphylococcus aureus [5]): 4
MIC (Pseudomonas aeruginosa): 7.3 µM
Activity [6]: Non-toxic
MIC (Klebsiella pneumoniae): 3.6 µM
MBC (Escherichia coli [7]): 3.6 µM
Activity (Escherichia coli [8]): Active
fold change (FC) (Escherichia coli [9]): 2
HC50 at 40 min [10]: 2 mM
MBC (Staphylococcus aureus [11]): 3.6 µM
MIC (Bacillus subtilis): 3.6 µM
MIC (Staphylococcus aureus [12]): 14.4 µM
Activity [13]: Active
Activity [14]: inactive
viability at 24 h, 100 µM [15]: 75%
Activity (Staphylococcus aureus [16]): Active
MIC (Escherichia coli [17]): 1.8 µM
Activity (Staphylococcus aureus [18]): Active
Activity (Escherichia coli [19]): Active
MIC (Staphylococcus aureus [20]): 7.3 µM
Activity (Escherichia coli [21]): Active
Activity [22]: Non-toxic
Activity [23]: Non-toxic
Activity (Escherichia coli [24]): Active
viability at 24 h, 100 µM [25]: 75%
Activity (Staphylococcus aureus [26]): Active; Emerged As Swiftest Molecule
MIC [27]: 2.5 µM
MIC (Staphylococcus aureus [28]): 3.6 µM
Activity (Staphylococcus aureus [29]): Active
MIC (Staphylococcus aureus [30]): 3.6 µM
Activity (Escherichia coli [31]): Active
Activity (Staphylococcus aureus [32]): Active
Activity [33]: Non-toxic
Activity (Escherichia coli [34]): Active; Emerged As Swiftest Molecule
fold change (FC) (Staphylococcus aureus [35]): 4
Activity [36]: Non-toxic
Retention_time [37]: 20.54 min
fold change (FC) (Escherichia coli [38]): 4
MIC (Escherichia coli [39]): 14.4 µM

Reference: ChEMBL document CHEMBL6087460, “Generating a Peptide Library Using the Repeats of Amino Acid Scaffolds Created by Sliding the Framework of a 7-mer Human Chemerin Segment and Discovery of Potent Antibacterial and Antimycobacterial Peptides” (J Med Chem, 2025)
